Literature values as cited in publication PMC9916978, “Enantioselective Human Serum Albumin Binding of Apremilast: Liquid Chromatographic, Fluorescence and Molecular Docking Study” (International Journal of Molecular Sciences, 2023).

How the values were obtained:
Parameters in all cases: method as in earlier work
Conditions in all cases: 0.25 to 2.5 μg/mL; cited from earlier work
rabbit plasma = system: rabbit plasma
monkey plasma = system: monkey plasma
mouse plasma = system: mouse plasma
human plasma = system: human plasma
rat plasma = system: rat plasma

CCOc1cc([C@@H](CS(C)(=O)=O)N2C(=O)c3cccc(NC(C)=O)c3C2=O)ccc1OC [APR, apremilast]
overall mean percent bound (rabbit plasma): 80.9%
overall mean percent bound (monkey plasma): 84.3%
overall mean percent bound (mouse plasma): 88.6%
overall mean percent bound (human plasma): 68.3%
overall mean percent bound (rat plasma): 90.6%
